Measured values as given in US10392385B2, “N-((1-phenyl-9H-pyrido[3,4-b]indol-3-yl)methyl)cinnamamides as potential anticancer agents and preparation thereof” (Council of Scientific & Industrial Research, priority 2016, dated 2019).

Legend:
A549 = settings: lung cancer; 48 h of drug treatment; average of three experiments; cited from earlier work
MCF-7 = settings: breast cancer; 48 h of drug treatment; average of three experiments; cited from earlier work
HeLa = settings: cervical cancer; 48 h of drug treatment; average of three experiments; cited from earlier work
MCF-7 (breast cancer) = test: MTT cytotoxicity assay, MCF-7; type: cell-based; settings: Homo sapiens, MCF7, average of three experiments
From the text: (§1) The N-((1-phenyl-9H-pyrido[3,4-b]indol-3-yl)methyl)cinnamamides (1a-h, 2a-h and 3a-h) have been tested against five human cancer cell lines such as A549 (lung cancer), MCF-7 (breast cancer), B16 (melanoma), HeLa (cervical cancer) and NIH3T3 (mouse embryonic fibroblast cancer). All the cancer cell lines (HeLa, A549, MCF-7 and B16) were procured from National Centre for Cell Sciences (NCCS, Pune, India) and NIH 3T3 cell line was obtained from American Type Culture Collection (Rockville, Md., USA). Stock cells were cultured in DMEM supplemented with 10% Fetal Bovine Serum (FBS), in an humidified atmosphere of 5% CO2 at 37° C. until they are 80% confluent. To study the cytotoxicity of the compounds, after 80% confluence, cells were trypsinized with 0.1% trypsin-EDTA and harvested by centrifugation at 500×g. Serial dilutions of cells were made from 1×10^6 to 1×10^3 cells per mL The cells were seeded in triplicate in a 96 well plate. The cells were seeded in triplicate in a 96 well plate. […] The cell viability was determined by measuring the ability of cells to transform MTT to a purple coloured formazan dye. The absorbance of samples at 570 nm was measured using a UV-Visible spectrophotometer. Percentage of viable cells was calculated by using the formula given below.
(§2) Where the OD570 (sample) corresponds to absorbance obtained from the wells treated with compound and OD570 (control) represents the absorbance from the wells in which no compound was added. For these compounds results are expressed as half maximal inhibitory concentration (IC50) values and the anticancer activity data of 1a-h, 2a-h and 3a-h are shown in Table 2.

B16 (melanoma) = test: MTT cytotoxicity assay, B16; type: cell-based; settings: 48 h of drug treatment (footnote), average of three experiments
From the text: as §1, §2

HeLa (cervical cancer) = test: MTT cytotoxicity assay, HeLa; type: cell-based; settings: Homo sapiens, of drug treatment (footnote), average of three experiments
From the text: as §1, §2

[1] = test system: NIH3T3 (mouse embryonic fibroblast cell line); test: MTT cytotoxicity assay, NIH3T3; type: cell-based; settings: 48 h of drug treatment (footnote), average of three experiments
From the text: as §1, §2

[2] = test system: A549, MCF-7, B16, HeLa and NIH3T3 cell lines; test: MTT cytotoxicity assay, all the cell lines tested; type: cell-based; settings: summary over A549, MCF-7, B16, HeLa, read-out: IC50 against all the cell lines tested
From the text: as §1, with “500×g.” for “500×g. Serial dilutions of cells were made from 1×10^6 to 1×10^3 cells per mL The cells were seeded in triplicate in a 96 well plate. The cells were seeded in triplicate in a 96 well plate.”
(§3) Where the OD570 (sample) corresponds to absorbance obtained from the wells treated with compound and OD570 (control) represents the absorbance from the wells in which no compound was added.

A549 (lung cancer) = test: MTT cytotoxicity assay, A549; type: cell-based; settings: Homo sapiens, 48 h of drug treatment (footnote), average of three experiments
From the text: as §1, §3

| melting point [°C] | Structure (SMILES) | IC50 (A549) [nM] | IC50 (MCF-7) [nM] | IC50 (HeLa) [nM] | IC50 (MCF-7 (breast cancer)) [nM] | IC50 (B16 (melanoma)) [nM] | IC50 (HeLa (cervical cancer)) [nM] | IC50 [1] [nM] | IC50 [2] [nM] | IC50 (A549 (lung cancer)) [nM] |
| --- | --- | --- | --- | --- | --- | --- | --- | --- | --- | --- |
|  | NCc1cc2c([nH]c3ccccc32)c(-c2ccc(C(F)(F)F)cc2)n1 [Compound 21e] | 15800 | 12000 | 15800 |  |  |  |  |  |  |
|  | COc1cc(-c2nc(CN)cc3c2[nH]c2ccccc23)cc(OC)c1OC [Compound 21b, (1-(3,4,5-trimethoxyphenyl)-9H-pyrido[3,4-b]indol-3-yl)methanamine] | 15100 | 18600 | 21700 |  |  |  |  |  |  |
|  | COc1cccc2c1C(=O)c1c(O)c3c(c(O)c1C2=O)C[C@@](O)(C(=O)CO)C[C@@H]3O[C@H]1C[C@H](N)[C@H](O)[C@H](C)O1 [Doxorubicin, reference compound] |  |  |  | 580 ± 0.2 | 670 ± 0.7 | 780 ± 0.5 | 1720 ± 0.8 | > 500 |  |
|  | COc1ccc(-c2nc(CN)cc3c2[nH]c2ccccc23)cc1 [Compound 21c, (1-(4-methoxyphenyl)-9H-pyrido[3,4-b]indol-3-yl)methanamine] | 17800 | 18900 | 18600 |  |  |  |  |  |  |
| 258 to 264 | O=C(/C=C/c1ccc(F)cc1)NCc1cc2c([nH]c3ccccc32)c(-c2cccc(F)c2)n1 [Compound 1c, (E)-3-(4-fluorophenyl)-N-((1-(3-fluorophenyl)-9H-pyrido[3,4-b]indol-3-yl)methyl)acrylamide] |  |  |  | 16.5 ± 1.8 | 16.8 ± 0.8 | 24.3 ± 0.6 | 30.8 ± 2.1 |  | 16.3 ± 0.3 |
| 228 to 230 | COc1cc(-c2nc(CNC(=O)/C=C/c3cc(F)cc(F)c3)cc3c2[nH]c2ccccc23)cc(OC)c1OC [Compound 2d, (E)-3-(3,5-difluorophenyl)-N-((1-(3,4,5-trimethoxyphenyl)-9H-pyrido[3,4-b]indol-3-yl)methyl)acrylamide] |  |  |  | 19.6 ± 1.1 | 24.1 ± 0.7 | 23.8 ± 0.3 | 36.3 ± 1.7 |  | 21.6 ± 1.2 |
| 255 to 258 | O=C(/C=C/c1ccc(Cl)c(Cl)c1)NCc1cc2c([nH]c3ccccc32)c(-c2cccc(F)c2)n1 [Compound 1b, (E)-3-(3,4-dichlorophenyl)-N-((1-(3-fluorophenyl)-9H-pyrido[3,4-b]indol-3-yl)methyl)acrylamide] |  |  |  | 17 ± 1.2 | 18.9 ± 0.4 | 24.9 ± 0.4 | 39 ± 1.1 |  | 18 ± 0.8 |
| 215 to 220 | COc1ccc(-c2nc(CNC(=O)/C=C/c3ccc(O)c(OC)c3)cc3c2[nH]c2ccccc23)cc1 [Compound 3g, (E)-3-(4-hydroxy-3-methoxyphenyl)-N-((1-(4-methoxyphenyl)-9H-pyrido[3,4-b]indol-3-yl)methyl)acrylamide] |  |  |  | 17.2 ± 0.5 | 19.8 ± 0.5 | 24.87 ± 0.2 | 39.9 ± 1.6 |  | 21.2 ± 1.5 |
